In US20240124439A1, “Pyrido[2,3-D]Imidazole Derivatives and Their Use As Inhibitors of ITK for the Treatment of Skin Disease” (Pfizer Inc., priority 2020, published 2024):

Legend:
[1] = target: IL-2-Inducible T-Cell Kinase (ITK) (Homo sapiens (Human), UniProt Q08881); assay: ITK enzyme assay (IL-2-inducible T-cell kinase activity); type: biochemical; conditions: geometric mean of count n
How it was run: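 Full-length N-Flag/C-His human ITK, pre-incubated 30 min at RT with compound. Reaction in HEPES pH 7.5 buffer with MgCl2, glutathione, gelatin and Brij-35, started with BTK peptide substrate, 60 min at RT. EDTA stop, PT66/APC TR-FRET detection overnight; IC50 fitted by four-parameter logistic.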

[2] = tested on: activated CD4+ human T-cells (IL-2); assay: IL-2 inhibition in supernatants from activated CD4+ human T-cells (cisbio HTRF); type: cell-based; conditions: T-cell; CD3/CD28-activated CD4+ human T cells, ImmunoCult stimulation 20 to 24 hrs; geometric mean of count n
How it was run: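 Primary human CD4+ T cells activated with CD3/CD28 for 3 days and expanded to 7-9 days total, plated at 30,000 cells/well. Cells preincubated 15 min with compound, then stimulated with ImmunoCult (1:50 final) for 20-24 h at 37° C. Supernatant IL-2 measured by HTRF (665/615 nm); IC50 from four-parameter logistic fit.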

[3] = target: Tropomyosin Receptor Kinase A (TRKA), NTRK1 enzyme (Homo sapiens (Human), UniProt P04629); assay: TRKA (NTRK1) ThermoFisher Z'-LYTE enzyme assay; type: biochemical; conditions: test compound 1 uM, ATP 1 mM; arithmetic mean of count n
Sequence of Tropomyosin Receptor Kinase A (TRKA), NTRK1 enzyme (P04629 33-796): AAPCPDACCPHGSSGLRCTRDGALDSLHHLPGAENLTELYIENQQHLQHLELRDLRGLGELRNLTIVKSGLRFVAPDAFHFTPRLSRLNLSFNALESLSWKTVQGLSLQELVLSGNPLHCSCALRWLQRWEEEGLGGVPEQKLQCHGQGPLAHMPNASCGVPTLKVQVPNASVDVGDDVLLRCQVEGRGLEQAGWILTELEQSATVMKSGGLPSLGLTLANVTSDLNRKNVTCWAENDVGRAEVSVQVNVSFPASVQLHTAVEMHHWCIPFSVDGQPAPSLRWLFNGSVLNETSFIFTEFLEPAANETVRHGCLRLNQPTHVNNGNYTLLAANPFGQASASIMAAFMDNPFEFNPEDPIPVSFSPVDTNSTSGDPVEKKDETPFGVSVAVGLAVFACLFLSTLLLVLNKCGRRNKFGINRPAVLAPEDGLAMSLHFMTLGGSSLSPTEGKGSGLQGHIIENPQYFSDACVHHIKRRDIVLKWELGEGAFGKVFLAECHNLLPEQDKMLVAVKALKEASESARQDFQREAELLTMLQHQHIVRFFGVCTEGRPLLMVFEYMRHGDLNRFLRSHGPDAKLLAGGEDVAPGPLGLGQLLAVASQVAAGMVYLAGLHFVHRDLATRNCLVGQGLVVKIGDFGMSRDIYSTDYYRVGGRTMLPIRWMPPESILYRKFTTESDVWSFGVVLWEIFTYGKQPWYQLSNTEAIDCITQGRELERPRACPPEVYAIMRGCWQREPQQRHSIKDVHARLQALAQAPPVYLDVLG
Experimental: TRKA, also known as neurotrophic tyrosine kinase receptor type 1 (NTKR1) activity was determined by measuring the effect of a test compound on the activity against the NTRK1 enzyme using the ThermoFisher Z′-LYTE Assay fluorescence-based coupled enzyme format (www.thermofisher.com/selectscreen). Test compounds were screened at a fixed concentration of 1 uM and the % inhibition was determined compared to controls at a fixed ATP concentration of 1 mM. The resulting effect value for the tested compound was compared to the assay controls to determine the % inhibition (%).

Sequence of IL-2-Inducible T-Cell Kinase (ITK) (Q08881 whole entry): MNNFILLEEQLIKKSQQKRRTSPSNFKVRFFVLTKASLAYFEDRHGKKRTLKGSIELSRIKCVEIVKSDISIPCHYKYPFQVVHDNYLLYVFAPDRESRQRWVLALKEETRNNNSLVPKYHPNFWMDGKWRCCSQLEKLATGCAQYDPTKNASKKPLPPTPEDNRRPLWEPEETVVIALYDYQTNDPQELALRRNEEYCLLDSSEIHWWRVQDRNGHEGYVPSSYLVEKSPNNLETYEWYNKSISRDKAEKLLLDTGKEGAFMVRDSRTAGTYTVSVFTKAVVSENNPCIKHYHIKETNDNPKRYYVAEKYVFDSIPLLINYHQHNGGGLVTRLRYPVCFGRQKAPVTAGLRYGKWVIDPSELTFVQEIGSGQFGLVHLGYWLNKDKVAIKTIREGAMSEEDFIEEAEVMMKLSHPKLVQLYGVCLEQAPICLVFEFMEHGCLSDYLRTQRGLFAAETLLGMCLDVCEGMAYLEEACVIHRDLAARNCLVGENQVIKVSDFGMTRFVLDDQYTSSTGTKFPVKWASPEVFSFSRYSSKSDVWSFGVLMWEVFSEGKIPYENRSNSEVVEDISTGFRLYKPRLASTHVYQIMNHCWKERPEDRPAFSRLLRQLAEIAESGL

Structure (SMILES)	IC50 [1] [µM]	IC50 [2] [µM]	inhibition at 1 µM [3] [%]
C[C@@H](C(=O)N(C)c1cnc2[nH]c(-c3n[nH]c4c3C[C@@H]3C[C@]3(C)C4)nc2c1)C1CCOCC1 [Example 1, (R)-N-Methyl-N-(2-((4aS,5aR)-5a-methyl-1,4,4a,5,5a,6-hexahydrocyclopropa[f]indazol-3-yl)-3H-imidazo[4,5-b]pyridin-6-yl)-2-(tetrahydro-2H-pyran-4-yl)propenamide]	0.009	0.067	96
CN(C(=O)CCC(C)(F)F)c1cnc2[nH]c(-c3n[nH]c4c3CCC(C)(C)C4)nc2c1 [Example 97, N-(2-(6,6-Dimethyl-4,5,6,7-tetrahydro-1H-indazol-3-yl)-3H-imidazo[4,5-b]pyridin-6-yl)-4,4-difluoro-N-methylpentanamide]	0.056	0.287	92
C[C@@H](C(=O)N(C)c1cnc2[nH]c(-c3n[nH]c4c3C[C@@H]3C[C@]3(C)C4)nc2c1)N1CCOCC1 [Example 28, (S)-N-Methyl-N-(2-((4aS,5aR)-5a-methyl-1,4,4a,5,5a,6-hexahydrocyclopropa[f]indazol-3-yl)-3H-imidazo[4,5-b]pyridin-6-yl)-2-morpholinopropanamide]	0.023	0.121	91
C[C@H](C(=O)N(C)c1cnc2[nH]c(-c3n[nH]c4c3C[C@@H]3C[C@]3(C)C4)nc2c1)N1CCOCC1 [Example 26, (R)-N-Methyl-N-(2-((4aS,5aR)-5a-methyl-1,4,4a,5,5a,6-hexahydrocyclopropa[f]indazol-3-yl)-3H-imidazo[4,5-b]pyridin-6-yl)-2-morpholinopropanamide]	–	0.631	91
C[C@@H](C(=O)N(C)c1cnc2[nH]c(-c3n[nH]c4c3CCC(C)(C)C4)nc2c1)N1CCOCC1 [Example 14, (S)-N-(2-(6,6-Dimethyl-4,5,6,7-tetrahydro-1H-indazol-3-yl)-3H-imidazo[4,5-b]pyridin-6-yl)-N-methyl-2-morpholinopropanamide]	–	0.157	92
CN(C(=O)[C@H]1CCCCO1)c1cnc2nc(-c3n[nH]c4c3C[C@@H]3C[C@]3(C)C4)[nH]c2c1 [Example 68, (R)-N-Methyl-N-(2-((4aS,5aR)-5a-methyl-1,4,4a,5,5a,6-hexahydrocyclopropa[f]indazol-3-yl)-1H-imidazo[4,5-b]pyridin-6-yl)tetrahydro-2H-pyran-2-carboxamide]	0.107	0.177	–
CC[C@H](C)C(=O)N(C)c1cnc2nc(-c3n[nH]c4c3C[C@@H]3C[C@]3(C)C4)[nH]c2c1 [Example 83, (S)-N,2-Dimethyl-N-(2-((4aS,5aR)-5a-methyl-1,4,4a,5,5a,6-hexahydrocyclopropa[f]indazol-3-yl)-1H-imidazo[4,5-b]pyridin-6-yl)butanamide]	0.047	0.371	–
CC[C@@H](C(=O)N(C)c1cnc2[nH]c(-c3n[nH]c4c3C[C@@H]3C[C@]3(C)C4)nc2c1)N1CCOCC1 [Example 4, (S)-N-Methyl-N-(2-((4aS,5aR)-5a-methyl-1,4,4a,5,5a,6-hexahydrocyclopropa[f]indazol-3-yl)-3H-imidazo[4,5-b]pyridin-6-yl)-2-morpholinobutanamide]	0.038	0.205	–
C[C@@H](C(=O)N(C)c1cnc2[nH]c(-c3n[nH]c4c3C[C@@H]3C[C@]3(C)C4)nc2c1)N1CC2CC(C1)O2 (single isomer, unassigned) [Example 41]	0.116	0.6	–
CC[C@@H](C)C(=O)N(C)c1cnc2nc(-c3n[nH]c4c3C[C@@H]3C[C@]3(C)C4)[nH]c2c1 [Example 87, (R)-N,2-Dimethyl-N-(2-((4aS,5aR)-5a-methyl-1,4,4a,5,5a,6-hexahydrocyclopropa[f]indazol-3-yl)-1H-imidazo[4,5-b]pyridin-6-yl)butanamide]	0.026	0.246	–
CN(C(=O)C1CCCC1)c1cnc2[nH]c(-c3n[nH]c4c3CCC(C)(C)C4)nc2c1 [Example 113, N-(2-(6,6-Dimethyl-4,5,6,7-tetrahydro-1H-indazol-3-yl)-3H-imidazo[4,5-b]pyridin-6-yl)-N-methylcyclopentanecarboxamide]	0.35	1.62	–

More lines, now with the values ahead:

IC50 [1] [µM]	IC50 [2] [µM]	inhibition at 1 µM [3] [%]	Structure (SMILES)
–	0.162	97	CCN(C(=O)[C@H](C)C1CCOCC1)c1cnc2[nH]c(-c3n[nH]c4c3CCC(C)(C)C4)nc2c1 [Example 18]
0.028	0.182	97	COCCOc1nc2[nH]c(-c3n[nH]c4c3C[C@@H]3C[C@]3(C)C4)nc2cc1N(C)C(=O)[C@H](C)N1CCOCC1 [Example 40, (S)-N-(5-(2-Methoxyethoxy)-2-((4aS,5aR)-5a-methyl-1,4,4a,5,5a,6-hexahydrocyclopropa[f]indazol-3-yl)-3H-imidazo[4,5-b]pyridin-6-yl)-N-methyl-2-morpholinopropanamide]
0.054	1.25	96	CC(=O)N(C)CC(=O)N(C)c1cnc2nc(-c3n[nH]c4c3C[C@@H]3C[C@]3(C)C4)[nH]c2c1 [Example 80, N-Methyl-N-(2-((4aS,5aR)-5a-methyl-1,4,4a,5,5a,6-hexahydrocyclopropa[f]indazol-3-yl)-1H-imidazo[4,5-b]pyridin-6-yl)-2-(N-methylacetamido)acetamide]
0.008	0.079	97	CCN(C(=O)[C@H](C)N1CCOCC1)c1cnc2[nH]c(-c3n[nH]c4c3C[C@@H]3C(F)(F)[C@]3(C)C4)nc2c1 [Example 30, (S)-N-(2-((4aS,5aR)-5,5-Difluoro-5a-methyl-1,4,4a,5,5a,6-hexahydrocyclopropa[f]indazol-3-yl)-3H-imidazo[4,5-b]pyridin-6-yl)-N-ethyl-2-morpholinopropanamide]
0.152	0.464	–	COCCOc1nc2[nH]c(-c3n[nH]c4c3C[C@@H]3C[C@]3(C)C4)nc2cc1N(C)C(=O)CN1CCOCC1 [Example 38, N-(5-(2-Methoxyethoxy)-2-((4aS,5aR)-5a-methyl-1,4,4a,5,5a,6-hexahydrocyclopropa[f]indazol-3-yl)-3H-imidazo[4,5-b]pyridin-6-yl)-N-methyl-2-morpholinoacetamide]
0.04	0.338	–	CN(C(=O)C1(C2CCC2)CCC1)c1cnc2nc(-c3n[nH]c4c3C[C@@H]3C[C@]3(C)C4)[nH]c2c1 [Example 63, N-Methyl-N-(2-((4aS,5aR)-5a-methyl-1,4,4a,5,5a,6-hexahydrocyclopropa[f]indazol-3-yl)-1H-imidazo[4,5-b]pyridin-6-yl)-[1,1′-bi(cyclobutane)]-1-carboxamide]
0.059	0.233	–	CN(C(=O)CC(C)(C)C(F)F)c1cnc2[nH]c(-c3n[nH]c4c3CCC(C)(C)C4)nc2c1 [Example 99, N-(2-(6,6-Dimethyl-4,5,6,7-tetrahydro-1H-indazol-3-yl)-3H-imidazo[4,5-b]pyridin-6-yl)-4,4-difluoro-N,3,3-trimethylbutanamide]
0.02	0.176	–	CCC(CC)C(=O)N(C)c1cnc2nc(-c3n[nH]c4c3C[C@@H]3C[C@]3(C)C4)[nH]c2c1 [Example 82, 2-Ethyl-N-methyl-N-(2-((4aS,5aR)-5a-methyl-1,4,4a,5,5a,6-hexahydrocyclopropa[f]indazol-3-yl)-1H-imidazo[4,5-b]pyridin-6-yl)butanamide]
0.117	0.279	–	C[C@H](C(=O)N(C)c1cnc2nc(-c3n[nH]c4c3C[C@@H]3C[C@]3(C)C4)[nH]c2c1)n1cccn1 [Example 8, (R)-N-Methyl-N-(2-((4aS,5aR)-5a-methyl-1,4,4a,5,5a,6-hexahydrocyclopropa[f]indazol-3-yl)-1H-imidazo[4,5-b]pyridin-6-yl)-2-(1H-pyrazol-1-yl)propanamide]
0.07	0.398	–	C[C@@H](C(=O)N(C)c1cnc2nc(-c3n[nH]c4c3C[C@@H]3C[C@]3(C)C4)[nH]c2c1)n1cccn1 [Example 7, (S)-N-Methyl-N-(2-((4aS,5aR)-5a-methyl-1,4,4a,5,5a,6-hexahydrocyclopropa[f]indazol-3-yl)-1H-imidazo[4,5-b]pyridin-6-yl)-2-(1H-pyrazol-1-yl)propenamide]
0.035	0.552	–	CC(C)C(=O)N(C)CC(=O)N(C)c1cnc2nc(-c3n[nH]c4c3C[C@@H]3C[C@]3(C)C4)[nH]c2c1 [Example 78, N-Methyl-N-(2-(methyl(2-((4aS,5aR)-5a-methyl-1,4,4a,5,5a,6-hexahydrocyclopropa[f]indazol-3-yl)-1H-imidazo[4,5-b]pyridin-6-yl)amino)-2-oxoethyl)isobutyramide]
0.018	0.172	–	C[C@@H](C(=O)N(C)c1cnc2[nH]c(-c3n[nH]c4c3C[C@@H]3C[C@]3(C)C4)nc2c1)N1C[C@H]2CC[C@@H]1CO2 [Example 116, (S)-2-((1R,4R)-2-Oxa-5-azabicyclo[2.2.2]octan-5-yl)-N-methyl-N-(2-((4aS,5aR)-5a-methyl-1,4,4a,5,5a,6-hexahydrocyclopropa[f]indazol-3-yl)-3H-imidazo[4,5-b]pyridin-6-yl)propanamide]
